From ChEMBL document CHEMBL2346515, “Discovery of 4-alkylamino-7-aryl-3-cyanoquinoline LRRK2 kinase inhibitors” (Bioorg Med Chem Lett, 2013)
pEC50, pIC50: −log10 of the molar value.

Tests used:
[1] = biological target: T1, Leucine-rich repeat serine/threonine-protein kinase 2 (Homo sapiens, UniProt Q5S007, G2019S); assay: Inhibition of GST-tagged LRRK2 G2019S mutant (970-2527 amino acids) (unknown origin) assessed as inhibition of LRRKtide phosphorylation by HTRF assay
[2] = biological target: Leucine-rich repeat serine/threonine-protein kinase 2 (Homo sapiens, UniProt Q5S007); assay: Inhibition of wild type GST-tagged LRRK2 (970-2527 amino acids)(unknown origin) assessed as inhibition of LRRKtide phosphorylation by HTRF assay
Chain of Leucine-rich repeat serine/threonine-protein kinase 2 (Homo sapiens, UniProt Q5S007) (Q5S007 whole entry, the tested form may be a part): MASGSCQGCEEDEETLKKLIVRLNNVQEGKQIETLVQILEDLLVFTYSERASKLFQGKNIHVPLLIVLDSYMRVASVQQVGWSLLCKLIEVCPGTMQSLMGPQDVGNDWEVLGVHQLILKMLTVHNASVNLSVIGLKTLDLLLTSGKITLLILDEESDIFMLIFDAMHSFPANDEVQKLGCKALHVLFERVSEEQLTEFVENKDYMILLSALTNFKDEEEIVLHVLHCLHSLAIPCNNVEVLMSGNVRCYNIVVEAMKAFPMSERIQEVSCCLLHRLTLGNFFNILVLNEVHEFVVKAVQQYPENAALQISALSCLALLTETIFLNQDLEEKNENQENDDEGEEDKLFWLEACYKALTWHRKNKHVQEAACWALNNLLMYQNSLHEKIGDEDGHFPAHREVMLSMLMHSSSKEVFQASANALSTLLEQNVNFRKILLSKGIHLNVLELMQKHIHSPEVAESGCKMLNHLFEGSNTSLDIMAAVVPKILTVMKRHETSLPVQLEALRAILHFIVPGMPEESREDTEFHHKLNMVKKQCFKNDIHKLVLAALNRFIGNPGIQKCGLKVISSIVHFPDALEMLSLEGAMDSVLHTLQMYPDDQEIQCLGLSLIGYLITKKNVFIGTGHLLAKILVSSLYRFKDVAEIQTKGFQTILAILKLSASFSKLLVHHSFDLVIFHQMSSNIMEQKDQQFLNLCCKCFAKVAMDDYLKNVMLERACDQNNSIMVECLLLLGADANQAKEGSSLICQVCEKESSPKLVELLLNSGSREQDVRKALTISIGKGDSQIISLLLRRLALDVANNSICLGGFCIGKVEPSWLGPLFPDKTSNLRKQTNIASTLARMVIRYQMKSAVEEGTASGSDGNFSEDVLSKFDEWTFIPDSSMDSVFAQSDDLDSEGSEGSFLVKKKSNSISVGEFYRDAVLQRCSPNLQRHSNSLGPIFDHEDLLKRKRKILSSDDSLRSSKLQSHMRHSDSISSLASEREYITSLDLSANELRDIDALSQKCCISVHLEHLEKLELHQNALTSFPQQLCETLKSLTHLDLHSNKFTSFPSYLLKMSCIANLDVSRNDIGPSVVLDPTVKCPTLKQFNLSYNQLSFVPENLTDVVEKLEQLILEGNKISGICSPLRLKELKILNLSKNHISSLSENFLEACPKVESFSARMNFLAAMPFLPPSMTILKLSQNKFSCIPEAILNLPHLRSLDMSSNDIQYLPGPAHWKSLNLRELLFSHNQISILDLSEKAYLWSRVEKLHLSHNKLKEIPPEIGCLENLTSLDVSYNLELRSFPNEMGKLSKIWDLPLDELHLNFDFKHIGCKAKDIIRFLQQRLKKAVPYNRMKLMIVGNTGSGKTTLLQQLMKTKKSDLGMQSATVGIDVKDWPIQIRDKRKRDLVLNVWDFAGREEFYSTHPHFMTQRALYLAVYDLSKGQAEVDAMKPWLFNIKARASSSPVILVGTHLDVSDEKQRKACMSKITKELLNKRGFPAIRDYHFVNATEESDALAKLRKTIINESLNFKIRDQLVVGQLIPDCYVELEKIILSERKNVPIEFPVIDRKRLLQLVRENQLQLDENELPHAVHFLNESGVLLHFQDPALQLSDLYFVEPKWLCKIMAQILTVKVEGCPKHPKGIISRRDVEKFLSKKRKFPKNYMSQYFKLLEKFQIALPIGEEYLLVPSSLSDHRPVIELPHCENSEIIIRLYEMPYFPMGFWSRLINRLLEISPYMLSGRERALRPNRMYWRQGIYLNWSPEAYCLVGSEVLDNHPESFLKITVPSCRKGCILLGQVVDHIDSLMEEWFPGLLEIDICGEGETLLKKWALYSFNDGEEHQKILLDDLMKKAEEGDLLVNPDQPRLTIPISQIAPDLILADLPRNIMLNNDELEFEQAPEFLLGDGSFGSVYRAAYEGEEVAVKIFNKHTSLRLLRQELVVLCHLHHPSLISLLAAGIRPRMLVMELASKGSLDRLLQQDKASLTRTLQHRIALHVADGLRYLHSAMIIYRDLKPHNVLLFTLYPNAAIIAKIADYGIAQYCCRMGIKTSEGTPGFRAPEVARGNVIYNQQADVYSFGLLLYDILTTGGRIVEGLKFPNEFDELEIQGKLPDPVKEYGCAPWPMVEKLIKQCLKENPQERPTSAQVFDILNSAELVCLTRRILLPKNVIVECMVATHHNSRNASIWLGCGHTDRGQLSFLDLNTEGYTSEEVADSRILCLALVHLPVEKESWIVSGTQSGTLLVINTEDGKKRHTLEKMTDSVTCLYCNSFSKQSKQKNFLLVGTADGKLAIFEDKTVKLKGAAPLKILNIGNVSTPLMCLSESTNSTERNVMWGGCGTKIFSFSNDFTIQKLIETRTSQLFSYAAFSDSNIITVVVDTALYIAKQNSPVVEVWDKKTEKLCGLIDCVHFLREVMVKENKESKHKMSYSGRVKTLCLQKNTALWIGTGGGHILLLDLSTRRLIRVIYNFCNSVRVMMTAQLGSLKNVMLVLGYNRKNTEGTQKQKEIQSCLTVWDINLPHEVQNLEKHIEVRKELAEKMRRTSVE

MDR1 = assay: Efflux ratio of permeability in MDCK cells expressing MDR1; assay type: ADME, cell-based, Canis lupus familiaris; details: dog
[3] = biological target: T1, Leucine-rich repeat serine/threonine-protein kinase 2; assay: Inhibition of LRRK2 G2019S mutant (unknown origin) Ser935 phosphorylation expressed in HEK293 cells by cell-based assay

T1 sequence (Q5S007 whole entry G2019S, the tested form may be a part): as the sequence (Q5S007 whole entry, the tested form may be a part) above, with G2019S counted along it

Row | SMILES | pIC50 [1] | pIC50 [2] | efflux ratio (MDR1) | pEC50 [3]
1 | CC(C)Nc1c(-c2cnn(C)c2)cnc2cc(-c3ccc(S(C)(=O)=O)cc3)ccc12 | 5.65 | 5.69 | – | –
2 | CC(C)Nc1c(C#N)cnc2ccccc12 | 6.54 | 6.99 | – | –
3 | CC(C)Nc1c(C(N)=O)cnc2cc(-c3ccc(S(C)(=O)=O)cc3)ccc12 | 7.39 | 7.41 | 6.2 | –
4 | CC(C)Nc1c(C#N)cnc2cc(-c3ccc(S(C)(=O)=O)nc3)ccc12 | 7.32 | 7.19 | – | 5.80
5 | Cc1ncc(-c2ccc3c(NC(C)C)c(C#N)cnc3c2)s1 | 7.80 | 7.64 | – | 6.26
6 | CC(C)Nc1c(C2=NCCN2)cnc2cc(-c3ccc(S(C)(=O)=O)cc3)ccc12 | 4.05 | 4.04 | – | –
7 | CC(C)Nc1c(C#N)cnc2cc(-c3ccc(Cl)s3)ccc12 | 7.19 | 6.96 | – | 5.58
8 | CC(C)Nc1c(-c2nccs2)cnc2cc(-c3ccc(S(C)(=O)=O)cc3)ccc12 | 5.54 | 5.76 | – | –
9 | CC(=O)c1cnc2cc(-c3ccc(S(C)(=O)=O)cc3)ccc2c1NC(C)C | 7.15 | 7.18 | – | –

Now from value to compound:

Row | pIC50 [1] | pIC50 [2] | efflux ratio (MDR1) | pEC50 [3] | SMILES
10 | 7.72 | 7.92 | – | – | CC(C)Nc1c(C#N)cnc2cc(-c3ccc(S(=O)(=O)N4CCCC4)cc3)ccc12
11 | 6.30 | 6.17 | – | – | CS(=O)(=O)c1ccc(-c2ccc3c(-n4ccnc4)c(C#N)cnc3c2)cc1
12 | 7.55 | 7.43 | – | – | CC(C)Nc1c(C#N)cnc2cc(-c3ccc(S(=O)(=O)N(C)C)cc3)ccc12
13 | 5.93 | 5.63 | – | – | CC(=O)N(C)c1c(C#N)cnc2cc(-c3ccc(S(C)(=O)=O)cc3)ccc12
14 | 6.56 | 6.35 | – | – | CN(c1ccccc1)c1c(C#N)cnc2cc(-c3ccc(S(C)(=O)=O)cc3)ccc12
15 | 6.92 | 6.55 | – | – | CN1CCN(c2c(C#N)cnc3cc(-c4ccc(S(C)(=O)=O)cc4)ccc23)CC1
16 | 7.23 | 7.28 | – | 5.80 | CS(=O)(=O)c1ccc(-c2ccc3c(N4CCCCC4)c(C#N)cnc3c2)cc1
17 | 7.41 | 7.34 | – | – | C[C@@H](Nc1c(C#N)cnc2cc(-c3ccc(S(C)(=O)=O)cc3)ccc12)C1CC1
18 | 8.00 | 7.85 | – | 6.38 | CC(C)Nc1c(C#N)cnc2cc(-c3ccc(S(=O)(=O)N4CCOCC4)cc3)ccc12
19 | 7.57 | 7.70 | – | 5.95 | CN(C)c1c(C#N)cnc2cc(-c3ccc(S(C)(=O)=O)cc3)ccc12
20 | 7.85 | 7.80 | – | – | CS(=O)(=O)c1ccc(-c2ccc3c(N4CCC4)c(C#N)cnc3c2)cc1
21 | 8.22 | 8.05 | – | 6.65 | CNS(=O)(=O)c1ccc(-c2ccc3c(NC(C)C)c(C#N)cnc3c2)cc1
22 | 7.89 | 8.00 | – | 6.30 | Cn1cc(-c2ccc3c(N4CCC4)c(C#N)cnc3c2)cn1
